Counter-ions that a name gives are not always drawn. Like-named read-outs stand apart in the source and are kept apart here.
Columns and labels:
[1] = molecular target: T1, dopamine receptors (Rattus norvegicus, UniProt P61169); assay: 3H-spiroperidol binding test (rat striatal brain homogenates); details: 0.2 nM 3H-spiroperidol, 20 min, read-out: Binding IC50 (inhibition of 3H-spiroperidol binding to dopamine receptors)
T1 construct: rat striatal brain homogenates; from tissue; host or cells: rat striatum (brain homogenate)
T1 sequence (P61169 whole entry): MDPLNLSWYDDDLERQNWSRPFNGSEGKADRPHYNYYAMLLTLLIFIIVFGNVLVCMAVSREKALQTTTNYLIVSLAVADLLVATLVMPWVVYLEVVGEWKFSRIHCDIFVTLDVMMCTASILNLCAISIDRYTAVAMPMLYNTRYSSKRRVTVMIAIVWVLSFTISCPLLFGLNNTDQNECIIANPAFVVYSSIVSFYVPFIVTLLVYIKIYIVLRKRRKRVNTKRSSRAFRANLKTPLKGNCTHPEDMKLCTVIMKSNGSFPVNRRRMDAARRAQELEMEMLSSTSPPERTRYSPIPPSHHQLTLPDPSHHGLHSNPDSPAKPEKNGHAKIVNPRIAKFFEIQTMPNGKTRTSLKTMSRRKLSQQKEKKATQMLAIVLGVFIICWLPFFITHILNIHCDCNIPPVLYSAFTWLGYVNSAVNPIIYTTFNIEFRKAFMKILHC
Procedure: Dopamine receptor antagonism by compounds of formula I in vitro is determined by the ^3 H-spiroperidol binding assay. In this test, rat striatal brain homogenates were incubated for 20 minutes in the presence of 0.2 nanomolar ^3 H-spiroperidol and varying concentrations of test compounds. The incubations were terminated by rapid filtrations through Whatman GF/B filters, followed by 2×5 mL washes with ice-cold assay buffer (50 mM tribase-HCl pH 7.7 which contains fixed concentrations of 0.1% ascorbic acid, 120 mM NaCl, 5 mM KCl, 2 mM CaCl2, and 1 mM MgCl2).

[2] = test system: D-amphetamine hyperactivity (central nervous system dopamine receptors); assay: Antagonism of D-amphetamine hyperactivity in mice; details: Mus musculus, read-out: Antagonism of Amphetamine Hyperactivity ED50
[3] = test system: apomorphine-induced rearing; assay: Antagonism of apomorphine-induced rearing in mice; details: for ED50: Mus musculus; for Antagonism of Apomorphine Rearing % protected at 10 mg/kg: intravenous 10 mg/kg
[4] = Side effect evaluation in dogs; type: in vivo, dog (beagle); details: oral 1 mg/kg, then one day later 10 mg/kg; observed six hours
Procedure: For side effect liability evaluation, pure breed beagle dogs from Marshall Inc., North Rose, N.Y., were used. Prior to dosing, the dogs were fasted for approximately 18 hrs. Dosing was orally by gelatin capsule. […] Compound of formula Ia was initially administered orally at a dose of 1 mg/kg and then one day later at an oral dose of 10 mg/kg. An experienced observer monitored these dogs for six hours, following dosing.

[5] = test system: cisplatin-induced emesis; assay: Anti-cisplatin emesis in dogs; type: in vivo, dog (Beagle); details: for effectiveness against apomorphine and cisplatin emesis (in words): dogs
Procedure: The procedure was as follows:
In the evaluation 6 male and 6 female Beagle dogs, supplied by White Eagle Laboratories, Doylestown PA., were used. Three dogs were tested daily. Each dog received either saline-placebo, 30 ml i.v.; the compound of formula If, 10 mg/kg i.v.; or domperidone 10 mg/kg i.v. The compound of formula If was dissolved in warm sterile water for injection. Domperidone was solubilized in acetic acid and the pH was adjusted with 2N NaOH. Both drugs were diluted to an infusion volume of 30 mL with sterile water. The treatments were infused over a 30-minute (n=3) or a 60-minute (n=9) period. […] The cisplatin, 1 mg/ml dissolved in sterile water, was infused over a 10 minute period. Each treatment was given to 2 male and 2 female weight-matched dogs.
The dogs were fed Wayne dog food moistened in water, 20 grams/kg, one hour prior to treatment. During the observation period the onset, frequency and severity of vomiting episodes as well as any atypical behavioral activity was recorded.
Statistical evaluation of emetic activity was done using Student's-t test for unpaired data.

[6] = test system: apomorphine emesis; assay: Anti-apomorphine emesis in dogs; type: in vivo, dog (female Beagle); details: Canis lupus familiaris, po; orally, 1 hour before apomorphine HCl 0.1 mg/kg s.c.; 1 hour observation; read-out: anti-emetic ED50 (apomorphine emesis)
Procedure: Pure-bred female Beagle dogs (Fa. WIGA, Versuchstier-Zuchtanstalt, 8741 Sulzfeld, GFR) with an approximate body weight of 15 kg were used. All dogs were shown previously to vomit at least four times during the 60 minutes following injection of 0.1 mg/kg apomorphine .HCl s.c. into the neck. Each dog was used in 14 day intervals. Three drug sessions were followed by an apomorphine control session.
The compound of formula If was administered suspended in 5% acacia at different dose levels by oral gavage to at least 4 dogs per dose. One hour later 0.1 mg/kg apomorphine .HCl was injected s.c. and the dogs observed for a further hour for vomiting.

[7] = po, 2 h, read-out: Antagonism of Apomorphine rearing ED50
[8] = 10 mg/kg i.v., cisplatin 3 mg/kg i.v.

Row | Compound | IC50 [1] [nM] | ED50 ([2]; po, 1 h) [mg/kg] | ED50 [3, 7] [mg/kg] | Antagonism of Apomorphine Rearing % protected at 10 mg/kg ([3]; 4 hr after administration) [%] | Antagonism of Apomorphine Rearing % protected at 10 mg/kg ([3]; 7 hr after administration) [%] | further results
1 | CCc1c(C)[nH]c2c1C(=O)C(CN1CCC3(CC1)C(=O)NCN3c1ccccc1)CC2 (stereo not shown) [Compound Ia, 8-[(3-ethyl-4,5,6,7-tetrahydro-2-methyl-4-oxo-1H-indol-5-yl)methyl]-1-phenyl-1,3,8-triazaspiro[4.5]-decan-4-one] | 0.095 | > 100 | > 100 | – | – | ED50 ([2]; iv, 2 h): 15.9 mg/kg; ED50 ([2]; iv, 7 h): 8.6 mg/kg; ED50 ([3]; iv, 2 h, read-out: Antagonism of Apomorphine Rearing ED50): 7 mg/kg; ED50 ([3]; iv, 7 h, read-out: Antagonism of Apomorphine Rearing ED50): 2.3 mg/kg; grossly observable abnormal signs (behavior, motor coordination) [4]: Neither dose level produced any grossly observable alteration in behavior or motor coordination nor were any other abnormal signs seen
2 | CC1NC(=O)C2(CCN(CC3CCc4[nH]c5c(c4C3=O)CCC5)CC2)N1c1ccccc1 (stereo not shown) [Compound Ib, 8-[(1,2,3,4,5,6,7,8-octahydro-8-oxocyclopent[b]indol-7-yl)methyl]-2-methyl-1-phenyl-1,3,8-triazaspiro[4.5]-decan-4-one] | 0.94 | > 100 | > 100 | 36 | 36 | –
3 | O=C1c2c([nH]c3c2CCC3)CCC1CN1CCC2(CC1)C(=O)NCN2C1CCCCC1 (stereo not shown) [Compound Ic, 8-[(1,2,3,4,5,6,7,8-octahydro-8-oxocyclopent[b]indol-7-yl)methyl]-1-cyclohexyl-1,3,8-triazaspiro[4.5]-decan-4-one] | 0.52 | > 100 | > 100 | 40 | 40 | –
4 | Cc1[nH]c2c(c1C)C(=O)C(CN1CCC3(CC1)C(=O)NCN3c1ccccc1)CC2 (stereo not shown) [Compound Id, 8-[4,5,6,7-tetrahydro-(2,3-dimethyl-4-oxo-1H-indol-5-yl)methyl]-1-phenyl-1,3,8-triazaspiro[4.5]decan-4-one] | 0.078 | 147 | 12 | – | – | ED50 ([2]; iv, 4 h): > 20 mg/kg; ED50 ([3]; iv, 4 h, read-out: Antagonism of Apomorphine Rearing ED50): 5.1 mg/kg
5 | CCc1c(C)[nH]c2c1C(=O)C(CN1CCC3(CC1)C(=O)NCN3C1CCCCC1)CC2 (stereo not shown) [Compound Ie] | 0.082 | 235 | 98 | 62 | 79 | –
6 | O=C1c2c([nH]c3c2CCC3)CCC1CN1CCC2(CC1)C(=O)NCN2c1ccccc1 (stereo not shown) [Compound If, 1,2,3,5,6,7-hexahydro-7-[(4-oxo-1-phenyl-1,3,8-triazaspiro[4.5]decan-8-yl)methyl]-4H-cyclopent[b]indol-8(8H)-one] | 0.35 | > 100 | 12 | – | – | Vomiting episodes Mean (± S.E.) 6 Hrs [5, 8]: 6.0 ± 1.8; Vomiting episodes Mean (± S.E.) 1 hr. [5, 8]: 1.0 ± 0.4; effectiveness against apomorphine and cisplatin emesis (in words) [5]: effective against both apomorphine and cisplatin emesis in dogs; ED50 [6]: 0.75 mg/kg
7 | CN(C)CCCN1c2ccccc2Sc2ccc(Cl)cc21 [chloropromazine HCl, reference compound] | – | 2.1 | 4.9 | – | – | –
8 | O=c1[nH]c2ccccc2n1CCCN1CCC(n2c(=O)[nH]c3cc(Cl)ccc32)CC1 [domperidone] | – | 194 | 23 | – | – | emesis versus controls (in words) [5, 8]: did not differ significantly from controls; Vomiting episodes Mean (± S.E.) 6 Hrs [5, 8]: 12.5 ± 2.3; Vomiting episodes Mean (± S.E.) 1 hr. [5, 8]: 2.1 ± 0.7; effectiveness against apomorphine and cisplatin emesis (in words) [5]: only effective against apomorphine emesis in dogs; ED50 [6]: 0.2 mg/kg
9 | O=C(CCCN1CCC(O)(c2ccc(Cl)cc2)CC1)c1ccc(F)cc1 [haloperidol, reference compound] | – | 0.23 | 0.18 | – | – | –

— patent US4707484A, “Substituted piperidinomethylindolone and cyclopent(b)indolone derivatives” (Hoffmann-La Roche Inc., priority 1986, dated 1987)
